Data set [1] is described as follows: physchem. The note with it: pH 7.4.
The nature of data set [2]: Intrinsic clearance in human liver microsomes. The note with it: read-out: CLH. Format: ADME, Microsome.

Take `C[C@H]1CN(c2ncc(OCc3ccc(S(C)(=O)=O)cc3)cn2)CCN1C(=O)OC(C)(C)C`: the logD in data set [1] (octanol/phosphate buffer) was more than 3.6.
On to `C[C@@H]1CN(C(=O)OC(C)(C)C)CCN1c1ncc(OCc2ccc(S(C)(=O)=O)cc2F)cn1`, for which, in data set [1] (octanol/phosphate buffer), the logD came out at 3.7.
The molecule `C[C@@H]1CN(C(=O)OC(C)(C)C)CCN1c1ncc(OCc2ccc(S(C)(=O)=O)cc2C#N)cn1` gave a logD in data set [1] (octanol/phosphate buffer) of 3.3.
Regarding `C[C@@H]1CN(C(=O)OC(C)(C)C)CCN1c1ncc(OCc2ccc(S(C)(=O)=O)cn2)cn1`, the logD in data set [1] (octanol/water) was 3.
`C[C@@H]1CN(c2noc(C3CC3)n2)CCN1c1ncc(OCc2ccncc2C#N)cn1` had a logD in data set [1] (octanol/phosphate buffer) of 3.1.
On to `C[C@@H]1CN(C(=O)OC(C)(C)C)CCN1c1ncc(OCc2ccc(-n3cnnn3)cc2)cn1`, for which, in data set [1] (octanol/phosphate buffer), the logD was more than 4.3.
As to `CC(C)(C)OC(=O)N1CCN(c2ncc(OCc3ccncc3C#N)cn2)CC1`, the logD in data set [1] (octanol/phosphate buffer) amounted to 2.8.
Consider `CC(C)(C)OC(=O)N1CCN(c2cnc(OCc3ccc(S(C)(=O)=O)cc3)cn2)CC1`, for which the logD in data set [1] (octanol/water) was 3.4.
In turn, `C[C@@H]1CN(c2ncc(OCc3ccc(S(C)(=O)=O)cc3)cn2)CCN1C(=O)OC(C)(C)C` returned a logD in data set [1] (octanol/phosphate buffer) of more than 3.7.
Still for that read-out and setting: with `CC(C)(C)OC(=O)N1CCN(c2ccc(OCc3ccc(S(C)(=O)=O)cc3)cn2)CC1` the figure was 3.2; with `C[C@@H]1CN(C(=O)OC(C)(C)C)CCN1c1ncc(OCc2ccc(S(=O)(=O)N(C)C)cc2)cn1`, more than 4.3.
In data set [1] (octanol/phosphate buffer), `COc1cnccc1COc1cnc(N2CCN(C(=O)OC(C)(C)C)CC2)nc1` returned a logD of 3.8.
With `C[C@@H]1CN(c2ncc(F)cn2)CCN1c1ncc(OCc2ccncc2C#N)cn1`, the logD in data set [1] (octanol/phosphate buffer) came to 3.4.
For the molecule `C[C@@H]1CN(c2nc(C3CC3)no2)CCN1c1ncc(OCc2ccncc2C#N)cn1`, the logD in data set [1] (octanol/phosphate buffer) is 3.5.
For `C[C@@H]1CN(C(=O)OC(C)(C)C)CCN1c1ncc(OCc2ccc(C#N)cc2)cn1`, the logD in data set [1] (octanol/phosphate buffer) is more than 3.6.
Molecule `C[C@@H]1CN(C(=O)OCC(F)(F)F)CCN1c1ncc(OCc2ccncc2C#N)cn1` showed a logD in data set [1] (octanol/phosphate buffer) of 3.
Take `CC(C)(C)OC(=O)N1CCN(c2ncc(OCc3ccc(S(C)(=O)=O)cc3)cn2)CC1`: the microsomal CLint in data set [2] is 47 µL/min/mg. This molecule had a logD in data set [1] (octanol/phosphate buffer) of 3.2.
In data set [1] (octanol/water), `C[C@@H]1CN(c2noc(C(F)F)n2)CCN1c1ncc(OCc2ccncc2C#N)cn1` yielded a logD of 2.9.
On to `C[C@@H]1CN(c2nc(C(F)(F)F)no2)CCN1c1ncc(OCc2ccncc2C#N)cn1`, for which, in data set [1] (octanol/water), the log distribution coefficient (logD) stood at 3.1.

For orientation: logD means lipophilicity at a set pH, counting ionised and neutral species. A lower logD goes with lower lipophilicity.

The values above are taken from ChEMBL document CHEMBL2086249, “Use of small-molecule crystal structures to address solubility in a novel series of G protein coupled receptor 119 agonists: optimization of a lead and in vivo evaluation” (J Med Chem, 2012).
